In ChEMBL document CHEMBL1156829 (Proc Natl Acad Sci U S A, 2008):

Key:
[1] = NOVARTIS: Cytotoxicity against human hepatocellular carcinoma cell line (Huh7); type: toxicity, cell-based, Huh-7; settings: Huh7 cells (hepatocellular carcinoma cell line)
Plasmodium falciparum [2] = test: NOVARTIS: Inhibition of Plasmodium falciparum 3D7 (drug-susceptible) proliferation in erythrocyte-based infection assay; type: functional, organism-based
Plasmodium falciparum [3] = test: NOVARTIS: Inhibition of Plasmodium falciparum W2 (drug-resistant) proliferation in erythrocyte-based infection assay; type: functional, organism-based; settings: read-out: EC50

SMILES	CC50 [1]	EC50 (Plasmodium falciparum [2]; Plasmodium falciparum, 3D7)	EC50 (Plasmodium falciparum [3]; Plasmodium falciparum, W2)	EC50 (Plasmodium falciparum [2])	EC50 (Plasmodium falciparum [3])
CC(=O)Nc1ccc(Oc2ccc(C(c3ccccc3)(c3ccccc3)c3ccc(Oc4ccc(NC(C)=O)cc4)cc3)cc2)cc1	> 10000 nM	360 nM	747 nM	–	–
OC(Cn1nnc2ccccc21)Cn1c2ccc(Br)cc2c2cc(Br)ccc21 (centres undefined)	> 78000 nM	3370 nM	1350 nM	–	–
CCCOC(=O)C1=C(C)NC2=C(C(=O)CC(c3ccc(OC)c(OC)c3)C2)C1c1ccc(Cl)c(Cl)c1 (centres undefined)	52600 nM	143 nM	49.2 nM	–	–
CCCC(=O)O[C@]1(C(=O)CCl)[C@@H](C)C[C@H]2[C@@H]3CCC4=CC(=O)C=C[C@]4(C)[C@@]3(F)C(=O)C[C@@]21C	80000 nM	> 12500 nM	6080 nM	–	–
Cc1ccc(C(=O)c2c(C)oc3ccc(O)cc23)cc1	> 10000 nM	> 1250 nM	> 839 nM	–	–
COC(=O)c1cc(NC(=S)NC(=O)c2c(OC)cccc2OC)cc(C(=O)OC)c1	> 100000 nM	5170 nM	> 12500 nM	–	–
C/C(Cl)=C/C[N+]1(CC#Cc2cccc3ccccc23)CCOCC1	> 10000 nM	672 nM	449 nM	–	–
COc1ccc(OC)c(-c2ccc(O)c(CNCCc3ccc(F)cc3)c2)c1	> 10000 nM	1050 nM	< 23.2 nM	–	–
O=C(O)CS(=O)(=O)c1ccc(C(=O)NCC(c2cccnc2)N2CCOCC2)cn1 (centres undefined)	> 10000 nM	> 876 nM	131 nM	–	–
CC(=O)c1c(C)n(CC(=O)Nc2cccc(C)c2)c2ccccc12	> 100000 nM	329 nM	248 nM	–	–
C[n+]1c(/C=C/c2ccc(F)cc2)ccc2ccccc21	> 10000 nM	104 nM	90.7 nM	–	–
COc1ccc(C=CC(=O)NC(=O)c2ccccc2O)cc1	> 73500 nM	132 nM	479 nM	–	–
Cc1ccn2c(NC(C)(C)CC(C)(C)C)c(-c3ccccc3OC(=O)c3ccc(C)c([N+](=O)[O-])c3)nc2c1	> 10000 nM	744 nM	47.7 nM	–	–
Cn1nc(C(F)(F)F)c(-c2ccc(F)cc2)c1NC(=O)Nc1ccc(F)cc1	23600 nM	241 nM	254 nM	–	–
CCN(CC)CCNc1ccnc2cc(Cl)ccc12	29800 nM	7.16 nM	6.01 nM	–	–
O=C(NC(=CC=Cc1ccccc1)C(=O)N1CCOCC1)c1ccc(Br)cc1	> 100000 nM	> 10400 nM	683 nM	–	–
COc1ccccc1-n1c(C=Cc2cc(Br)ccc2O)nc2ccccc2c1=O	19400 nM	2070 nM	1240 nM	–	–
Oc1ccc(-c2ccnc3cc(Cl)ccc23)cc1CNC1CCCCC1	5940 nM	119 nM	15.2 nM	–	–
CCOC(=O)C1=C(C)NC2=C(C(=O)C(C(=O)OCC)C(c3ccccc3OC)C2)C1c1sccc1C (centres undefined)	> 100000 nM	984 nM	235 nM	–	–
Cc1ccc(S(=O)(=O)N=C2C=C(Sc3nnc[nH]3)C(=O)c3ccccc32)cc1	12800 nM	1560 nM	901 nM	–	–
Oc1ccc(-c2ccc(F)cc2)cc1CNC1CCCCC1	17400 nM	40.2 nM	6.28 nM	–	–
COc1ccc(S(=O)(=O)N2CCC(c3nnc(-c4ccccc4OC)o3)CC2)cc1	> 100000 nM	2300 nM	1100 nM	–	–
CCOC(=O)C1=C(C)NC2=C(C(=O)C(C(=O)OCC)C(c3cccc(OC)c3)C2)C1c1cc(OC)c(OC)c(OC)c1 (centres undefined)	> 100000 nM	1090 nM	494 nM	–	–

SMILES	CC50 [1]	EC50 (Plasmodium falciparum [2]; Plasmodium falciparum, 3D7)	EC50 (Plasmodium falciparum [3]; Plasmodium falciparum, W2)	EC50 (Plasmodium falciparum [2])	EC50 (Plasmodium falciparum [3])
Brc1ccc(Nc2nc(NCc3ccco3)c3ccccc3n2)cc1	7150 nM	196 nM	192 nM	–	–
CSc1ccc(C=CC(=O)NC(=O)c2ccccc2O)cc1	> 100000 nM	243 nM	225 nM	–	–
CCN1/C(=C/C=C/c2oc3ccc4ccccc4c3[n+]2CC)Oc2ccc3ccccc3c21	> 10000 nM	> 1250 nM	578 nM	–	–
Cc1cccc(C2c3[nH]c4ccccc4c3CCN2C(=O)CCCN2CCCCC2=O)n1 (centres undefined)	> 100000 nM	> 12500 nM	3770 nM	–	–
Cc1oc(C)c2c(=O)cc(-c3cccs3)cc(O)c12	> 100000 nM	1220 nM	758 nM	–	–
CN1C2CCC1C(=Cc1ccsc1)C(=O)C2=Cc1ccsc1	> 100000 nM	676 nM	748 nM	–	–
COc1ccc(OC)c(NC(=O)COc2cc3ccccc3cc2C(=O)Nc2cc(OC)c(Cl)cc2OC)c1	> 100000 nM	1150 nM	782 nM	–	–
CCCCC(=O)NC(c1ccccc1)c1ccc2cccnc2c1O (centres undefined)	> 100000 nM	387 nM	239 nM	–	–
COc1ccc(-c2c(C(F)(F)F)nn(C)c2NC(=O)Nc2ccc(F)cc2F)cc1	78200 nM	242 nM	356 nM	–	–
OC(CNC1CCCCC1)Cn1c2ccc(Br)cc2c2cc(Br)ccc21 (centres undefined)	6060 nM	451 nM	102 nM	–	–
CC(C)NC(=O)c1ccc2c(c1)N=C(c1ccccc1)N(C1CC1)C2	> 10000 nM	> 1680 nM	117 nM	–	–
Cc1ccc2c(c1)N(CC(=O)NC1CCCCC1C)C(=O)CO2 (centres undefined)	> 10000 nM	2010 nM	> 815 nM	–	–
O=C(NCCCN1CCCC1=O)c1cccn2c(=O)c3ccc(Cl)cc3nc12	> 10000 nM	> 1350 nM	> 918 nM	–	–
N=c1n(CCN2CCCCC2)c2ccccc2n1CC(O)COc1ccc(Cl)cc1 (centres undefined)	6270 nM	521 nM	279 nM	–	–
CCOc1ccc(C2N(C)c3ccccc3N2C)cc1	> 10000 nM	250 nM	344 nM	–	–
c1ccc([Si]2(c3ccccc3)N[Si](c3ccccc3)(c3ccccc3)N[Si](c3ccccc3)(c3ccccc3)N2)cc1	> 10000 nM	521 nM	299 nM	–	–
CCCCC(=O)Oc1ccccc1-c1nc2cc(C)ccn2c1NC(C)(C)CC(C)(C)C	> 10000 nM	854 nM	57 nM	–	–
COc1ccc(OC)c(-c2ccc(O)c(CNCC(C)c3ccccc3)c2)c1 (centres undefined)	> 10000 nM	960 nM	672 nM	–	–
CCOC(=O)NN=CC=NNC(=O)OCC	> 10000 nM	199 nM	235 nM	–	–
CCOc1ccc(C(=O)CN2C(=O)c3ccccc3OC(C(C)C)C2=O)cc1[N+](=O)[O-] (centres undefined)	> 100000 nM	> 12500 nM	1920 nM	–	–
O=C1C=CC(=O)N1c1ccc(Sc2ccc(N3C(=O)C=CC3=O)cc2)cc1	> 10000 nM	> 814 nM	> 1250 nM	–	–
O=c1c2c3c(sc2ncn1CC1CCCCC1)CC(NCc1cccnc1)CC3 (centres undefined)	> 10000 nM	> 1040 nM	> 1250 nM	–	–
Cc1nc(-c2nc3c(s2)CN(C(=O)COc2ccc(Cl)cc2)CC3)cs1	> 100000 nM	> 10700 nM	2920 nM	–	–

SMILES	CC50 [1]	EC50 (Plasmodium falciparum [2]; Plasmodium falciparum, 3D7)	EC50 (Plasmodium falciparum [3]; Plasmodium falciparum, W2)	EC50 (Plasmodium falciparum [2])	EC50 (Plasmodium falciparum [3])
CCOC(=O)CCC(=O)N(C)CCCNc1ccnc2cc(Cl)ccc12	> 10000 nM	673 nM	< 15.6 nM	–	–
CCCN1CCN(C(=O)CCNC(=O)Cn2cnc3ccccc3c2=O)CC1	> 10000 nM	> 1250 nM	1590 nM	–	–
CC(NCCN1CCNCC1)c1cc(C(C)(C)C)cc2c1CCC2(C)C (centres undefined)	6720 nM	598 nM	586 nM	–	–
Cc1ccccc1Nc1nc(NCCO)c2ccccc2n1	23700 nM	1710 nM	689 nM	–	–
CCCCN(C(=O)Nc1ccc(OCC)cc1)C(C)c1nc2ccccc2c(=O)n1-c1ccc(F)c(Cl)c1 (centres undefined)	> 10000 nM	1010 nM	935 nM	–	–
c1ccc(OCCOc2ccc(Nc3ccnc4cc5ccccc5cc34)cc2)cc1	6110 nM	124 nM	97.5 nM	–	–
CCCOC(=O)C1=C(C)NC2=C(C(=O)CC(c3ccc(OC)c(OC)c3)C2)C1c1ccccc1Br (centres undefined)	> 100000 nM	76.6 nM	11.2 nM	–	–
CCCCOc1ccc(N(C(C)=O)C2=C(N3CCOCC3)C(=O)c3ccccc3C2=O)cc1	41000 nM	232 nM	304 nM	–	–
CCN(CC)c1nc(-c2cccnc2)nc2ccccc12	72200 nM	5640 nM	1600 nM	–	–
COc1ccc(C2=C(c3ccc(OC)cc3)C3(c4ccccc4)C(=O)C2(c2ccccc2)C2C(=O)N(c4cc(Cl)ccc4C)C(=O)C23)cc1 (centres undefined)	> 100000 nM	447 nM	346 nM	–	–
O=C(CSc1nc2ccccc2c(=O)n1C1CC1)Nc1cc(C(F)(F)F)ccc1Cl	> 100000 nM	719 nM	8110 nM	–	–
COc1ccccc1N1CCN(c2c3c(nc4nncn24)CCC3)CC1	> 10000 nM	> 736 nM	> 1250 nM	–	–
O=c1c2sccc2nc(SCc2cccc([N+](=O)[O-])c2)n1C1CC1	> 10000 nM	1250 nM	> 1520 nM	–	–
Cc1c(Cl)cccc1NC(=O)C1C(C(=O)O)C2C=CC1C21CC1 (centres undefined)	> 10000 nM	1250 nM	1400 nM	–	–
COc1cc(C2CC(=O)NC(C)=C2C(=O)OC(C)C)c(OC)cc1Br (centres undefined)	> 100000 nM	1030 nM	242 nM	–	–
Cc1ccccc1NC(=O)N(CCCNC(=O)CCl)c1ccccc1	> 10000 nM	> 442 nM	1770 nM	–	–
CCCCCN(C(=O)COc1ccc(Cl)cc1)C(CC)c1nc2ccccc2c(=O)n1-c1cccc(Cl)c1 (centres undefined)	> 10000 nM	1420 nM	> 1380 nM	–	–
COc1cccc(CNC(=O)[C@@H]2CNC[C@H]2c2ccc(C(F)(F)F)cc2)c1	23800 nM	108 nM	77.5 nM	–	–
CCOC(=O)c1c(CNC)n(C)c2cc(Br)c(O)cc12	> 100000 nM	458 nM	691 nM	–	–
CCOC(=O)c1c(C)n(-c2ccccc2)c2ccc(OC(=O)c3ccccc3NC(=O)C(C)C)cc12	> 100000 nM	885 nM	1990 nM	–	–
CCN1C(=Cc2sc3ccc(Cl)cc3[n+]2CC)C=Cc2cc(OC)ccc21	> 10000 nM	–	–	473 nM	602 nM
CCOc1ccccc1NC(=O)Cn1c(=O)n(Cc2ccccc2)c(=O)c2c(C)c(C(=O)N(C)C)sc21	> 100000 nM	883 nM	377 nM	–	–
